Test results: patent publication US20230257372A1 (CHONG KUN DANG PHARMACEUTICAL CORP., priority 2020, published 2023)
Like-named read-outs stand apart in the source and are kept apart here.

How the values were obtained:
[1] = molecular target: T1, human recombinant HDAC1 (Homo sapiens, UniProt Q13547); test: HDAC1 enzyme activity inhibition (HDAC Fluorimetric Drug Discovery Kit); type: biochemical; conditions: read-out: HDAC1
T1 construct: purchased Enzo Life Science, Inc. BML-SE456
Experimental: (§1) An experiment was conducted to identify the selectivity of the compound represented by formula I of the present invention to HDAC6 through an experiment on HDAC1 and HDAC6 enzyme activity inhibition.
(§2) A 5-fold dilution of the compound was divided into a 96-well plate, after which […] of the enzyme and 10 μM of the substrate were inserted into each well and subjected to reaction at 30° C. for 60 minutes, such that Fluor de Lys® Developer II (BML-KI176) was inserted thereinto and subjected to reaction for 30 minutes and finished.

[2] = molecular target: T2, human recombinant HDAC6 (Homo sapiens, UniProt Q9UBN7); test: HDAC6 enzyme activity inhibition (HDAC Fluorimetric Drug Discovery Kit); type: biochemical
T2 construct: purchased Calbiochem Inc. 382180
T2 sequence (Q9UBN7 1-1215): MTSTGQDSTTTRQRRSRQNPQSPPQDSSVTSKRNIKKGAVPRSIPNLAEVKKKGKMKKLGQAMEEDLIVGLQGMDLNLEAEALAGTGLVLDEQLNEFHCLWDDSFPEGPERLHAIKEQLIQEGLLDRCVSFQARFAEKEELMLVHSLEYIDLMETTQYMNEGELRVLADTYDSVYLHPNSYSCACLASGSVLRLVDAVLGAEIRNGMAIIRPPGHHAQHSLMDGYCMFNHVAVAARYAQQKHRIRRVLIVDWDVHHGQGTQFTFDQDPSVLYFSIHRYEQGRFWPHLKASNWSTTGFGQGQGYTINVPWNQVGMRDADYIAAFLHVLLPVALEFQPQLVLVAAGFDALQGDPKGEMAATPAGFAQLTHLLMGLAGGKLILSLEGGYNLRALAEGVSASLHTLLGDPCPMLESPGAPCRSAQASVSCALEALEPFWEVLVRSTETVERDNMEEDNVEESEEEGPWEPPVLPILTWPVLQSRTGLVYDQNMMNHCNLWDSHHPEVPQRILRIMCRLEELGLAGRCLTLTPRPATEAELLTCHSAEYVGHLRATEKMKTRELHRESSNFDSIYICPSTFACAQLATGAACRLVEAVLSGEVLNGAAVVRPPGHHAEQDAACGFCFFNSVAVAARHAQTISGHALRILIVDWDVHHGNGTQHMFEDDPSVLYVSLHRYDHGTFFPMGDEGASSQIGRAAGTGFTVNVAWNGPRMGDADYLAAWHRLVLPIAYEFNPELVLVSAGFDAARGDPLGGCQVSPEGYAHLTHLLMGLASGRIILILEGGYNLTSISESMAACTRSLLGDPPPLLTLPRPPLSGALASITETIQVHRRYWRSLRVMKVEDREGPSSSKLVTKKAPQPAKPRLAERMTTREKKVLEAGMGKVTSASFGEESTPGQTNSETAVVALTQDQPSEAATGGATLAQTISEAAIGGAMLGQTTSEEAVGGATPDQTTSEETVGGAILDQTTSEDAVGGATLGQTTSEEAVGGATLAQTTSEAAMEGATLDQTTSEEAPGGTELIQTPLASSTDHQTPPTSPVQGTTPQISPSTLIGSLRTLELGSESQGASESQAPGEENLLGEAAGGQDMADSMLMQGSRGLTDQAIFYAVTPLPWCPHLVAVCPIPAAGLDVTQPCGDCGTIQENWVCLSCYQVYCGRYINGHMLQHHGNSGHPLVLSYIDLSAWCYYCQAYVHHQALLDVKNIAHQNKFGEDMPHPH
Experimental: as §1, §2

[3] = human recombinant HDAC1, Fluor de Lys substrate, 30° C. 60 minutes
[4] = human recombinant HDAC6, same protocol as HDAC1
[5] = human recombinant HDAC1, IC50 calculated with GraphPad Prism
[6] = human recombinant HDAC6, IC50 calculated with GraphPad Prism

T1 sequence (Q13547 whole entry): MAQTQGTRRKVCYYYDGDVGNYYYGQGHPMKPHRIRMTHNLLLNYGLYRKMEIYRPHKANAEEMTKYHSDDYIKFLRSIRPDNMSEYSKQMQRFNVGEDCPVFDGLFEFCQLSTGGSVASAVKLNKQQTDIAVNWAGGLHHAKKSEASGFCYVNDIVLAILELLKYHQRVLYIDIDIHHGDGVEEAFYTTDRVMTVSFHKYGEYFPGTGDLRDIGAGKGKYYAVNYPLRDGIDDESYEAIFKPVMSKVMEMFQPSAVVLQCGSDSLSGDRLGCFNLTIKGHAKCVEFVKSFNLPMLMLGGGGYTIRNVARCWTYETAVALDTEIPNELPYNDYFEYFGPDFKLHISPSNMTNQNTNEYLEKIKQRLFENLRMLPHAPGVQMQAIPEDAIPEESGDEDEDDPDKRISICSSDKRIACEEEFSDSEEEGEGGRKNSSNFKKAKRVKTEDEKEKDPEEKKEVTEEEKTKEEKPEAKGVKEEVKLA

SMILES | IC50 [1, 3] [µM] | HDAC6 selectivity (fold) ([2]; HDAC6 over HDAC1) | IC50 [2, 4] [µM] | IC50 [1, 5] [µM] | further results
FC1CN(Cc2ccc(-c3cn(Cc4ccc(-c5nnc(C(F)F)o5)cc4)nn3)cc2)C1 [Compound 4549, 2-(difluoromethyl)-5-(4-((4-(4-((3-fluoroazetidin-1-yl)methyl)phenyl)-1H-1,2,3-triazol-1-yl)methyl)phenyl)-1,3,4-oxadiazole] | > 50 | 1213 | 0.0412 | – | –
Fc1cc(-c2nnc(C(F)F)o2)ccc1Cn1cc(-c2cccs2)nn1 [Compound 18258, 2-(difluoromethyl)-5-(3-fluoro-4-((4-(thiophen-2-yl)-1H-1,2,3-triazol-1-yl)methyl)phenyl)-1,3,4-oxadiazole] | > 50 | 582 | 0.0859 | – | –
Fc1cc(-c2nnc(C(F)F)o2)ccc1Cn1cc(-c2ccc3c(c2)CN(CC2(F)CC2)C3)nn1 [Compound 17460, 2-(difluoromethyl)-5-(3-fluoro-4-((4-(2-((1-fluorocyclopropyl)methyl)isoindolin-5-yl)-1H-1,2,3-triazol-1-yl)methyl)phenyl)-1,3,4-oxadiazole] | > 50 | 572 | 0.0874 | – | –
Fc1cc(-c2nnc(C(F)F)o2)cnc1Cn1cc(-c2cc(Cl)cc(CN3CCCC3)c2)nn1 [Compound 19092, 2-(6-((4-(3-chloro-5-(pyrrolidin-1-ylmethyl)phenyl)-1H-1,2,3-triazol-1-yl)methyl)-5-fluoropyridin-3-yl)-5-(difluoromethyl)-1,3,4-oxadiazole] | > 50 | 541 | 0.0924 | – | –
CC(C)(C)OC(=O)N1CC(N2CCC(c3cccc(-c4cn(Cc5ncc(-c6nnc(C(F)F)o6)cc5F)nn4)c3)CC2)C1 [Compound 18872, tert-butyl 3-(4-(3-(1-((5-(5-(difluoromethyl)-1,3,4-oxadiazol-2-yl)-3-fluoropyridin-2-yl)methyl)-1H-1,2,3-triazol-4-yl)phenyl)piperidin-1-yl)azetidin-1-carboxylate] | > 50 | 167 | 0.299 | – | –
Fc1c(-c2cn(Cc3ccc(-c4nnc(C(F)F)o4)cn3)nn2)cccc1N1CCN(CC2(F)CC2)CC1 [Compound 4600, 2-(difluoromethyl)-5-(6-((4-(2-fluoro-3-(4-((1-fluorocyclopropyl)methyl)piperazin-1-yl)phenyl)-1H-1,2,3-triazol-1-yl)methyl)pyridin-3-yl)-1,3,4-oxadiazole] | > 50 | 1533 | 0.0326 | – | –
FC(F)c1nnc(-c2ccc(Cn3cc(-c4ccc(Br)nc4)nn3)nc2)o1 [Compound 4183, 2-(6-((4-(6-bromopyridin-3-yl)-1H-1,2,3-triazol-1-yl)methyl)pyridin-3-yl)-5-(difluoromethyl)-1,3,4-oxadiazole] | – | – | – | > 50 | HDAC6 selectivity (fold) ([2]; HDAC1 IC50 / HDAC6 IC50): 896 fold; IC50 [2, 6]: 0.0558 µM
CN1CCC(Cc2cn(Cc3ccc(-c4nnc(C(F)F)o4)cn3)nn2)CC1 [Compound 4014, 2-(difluoromethyl)-5-(6-((4-((1-methylpiperidin-4-yl)methyl)-1H-1,2,3-triazol-1-yl)methyl)pyridin-3-yl)-1,3,4-oxadiazole] | – | – | – | > 50 | HDAC6 selectivity (fold) ([2]; HDAC1 IC50 / HDAC6 IC50): 246 fold; IC50 [2, 6]: 0.203 µM
CN1CCN(c2cccc(-c3cn(Cc4ccc(-c5nnc(C(F)F)o5)cc4F)nn3)c2F)CC1 [Compound 4576, 2-(difluoromethyl)-5-(3-fluoro-4-((4-(2-fluoro-3-(4-methylpiperazin-1-yl)phenyl)-1H-1,2,3-triazol-1-yl)methyl)phenyl)-1,3,4-oxadiazol] | > 50 | 2857 | 0.0175 | – | –
FC(F)c1nnc(-c2ccc(Cn3cc(-c4cccc(CN5CCCC5)c4)nn3)nc2)o1 [Compound 3966, 2-(difluoromethyl)-5-(6-((4-(3-(pyrrolidin-1-ylmethyl)phenyl)-1H-1,2,3-triazol-1-yl)methyl)pyridin-3-yl)-1,3,4-oxadiazole] | – | – | – | > 50 | HDAC6 selectivity (fold) ([2]; HDAC1 IC50 / HDAC6 IC50): 1694 fold; IC50 [2, 6]: 0.0295 µM
O=C(c1cccc(-c2cn(Cc3ccc(-c4nnc(C(F)F)o4)cn3)nn2)c1)N1CCCC1 [Compound 3829, (3-(1-((5-(5-(difluoromethyl)-1,3,4-oxadiazol-2-yl)pyridin-2-yl)methyl)-1H-1,2,3-triazol-4-yl)phenyl)(pyrrolidin-1-yl)methanone] | – | – | – | > 50 | HDAC6 selectivity (fold) ([2]; HDAC1 IC50 / HDAC6 IC50): 1655 fold; IC50 [2, 6]: 0.0302 µM
CN(C)Cc1ccc(-c2cn(Cc3ccc(-c4nnc(C(F)F)o4)cc3F)nn2)s1 [Compound 17914, 1-(5-(1-(4-(5-(difluoromethyl)-1,3,4-oxadiazol-2-yl)-2-fluorobenzyl)-1H-1,2,3-triazol-4-yl)thiophen-2-yl)-N,N-dimethylmethanamine] | > 50 | – | – | – | –
CC(C)(F)C(=O)Nc1cccc(-c2cn(Cc3ccc(-c4nnc(C(F)F)o4)cc3F)nn2)c1 [Compound 4334] | – | – | – | > 50 | –
Fc1cc(-c2nnc(C(F)F)o2)ccc1Cn1cc(-c2ccn3ccnc3c2)nn1 [Compound 17198, 2-(difluoromethyl)-5-(3-fluoro-4-((4-(imidazo[1,2-a]pyridin-7-yl)-1H-1,2,3-triazol-1-yl)methyl)phenyl)-1,3,4-oxadiazole] | > 50 | – | – | – | –
CN1CC(c2ccc(-c3cn(Cc4ccc(-c5nnc(C(F)F)o5)cc4F)nn3)cc2)C1 [Compound 17698] | > 50 | – | – | – | –
FC(F)c1nnc(-c2ccc(Cn3cc(-c4cn[nH]c4)nn3)nc2)o1 [Compound 3985, 2-(6-((4-(1H-pyrazol-4-yl)-1H-1,2,3-triazol-1-yl)methyl)pyridin-3-yl)-5-(difluoromethyl)-1,3,4-oxadiazole] | – | – | – | > 50 | –
FC(F)c1nnc(-c2ccc(Cn3cc(-c4ccc5[nH]ncc5c4)nn3)cc2)o1 [Compound 4344, 2-(4-((4-(1H-indazol-5-yl)-1H-1,2,3-triazol-1-yl)methyl)phenyl)-5-(difluoromethyl)-1,3,4-oxadiazole] | – | – | – | > 50 | –
Fc1ccc(-c2cn(Cc3ccc(-c4nnc(C(F)F)o4)cc3)nn2)cc1F [Compound 3661, 2-(difluoromethyl)-5-(4-((4-(3,4-difluorophenyl)-1H-1,2,3-triazol-1-yl)methyl)phenyl)-1,3,4-oxadiazole] | – | – | – | > 50 | –
CCN1CCC(c2cccc(-c3cn(Cc4ccc(-c5nnc(C(F)F)o5)cn4)nn3)c2)CC1 [Compound 4011, 2-(difluoromethyl)-5-(6-((4-(3-(1-ethylpiperidin-4-yl)phenyl)-1H-1,2,3-triazol-1-yl)methyl)pyridin-3-yl)-1,3,4-oxadiazole] | – | – | – | > 50 | –
CN(C)Cc1ccc(-c2cn(Cc3ccc(-c4nnc(C(F)F)o4)cc3F)nn2)cc1 [Compound 4522, 1-(4-(1-(4-(5-(difluoromethyl)-1,3,4-oxadiazol-2-yl)-2-fluorobenzyl)-1H-1,2,3-triazol-4-yl)phenyl)-N,N-dimethylmethanamine] | > 50 | – | – | – | –
CC(C)N1Cc2ccc(-c3cn(Cc4ccc(-c5nnc(C(F)F)o5)cc4F)nn3)cc2C1 [Compound 4517, 2-(difluoromethyl)-5-(3-fluoro-4-((4-(2-isopropylisoindolin-5-yl)-1H-1,2,3-triazol-1-yl)methyl)phenyl)-1,3,4-oxadiazole] | > 50 | – | – | – | –
CN1CCN(c2cc(-c3cn(Cc4ccc(-c5nnc(C(F)F)o5)cc4F)nn3)ccn2)CC1 [Compound 4633, 2-(difluoromethyl)-5-(3-fluoro-4-((4-(2-(4-methylpiperazin-1-yl)pyridin-4-yl)-1H-1,2,3-triazol-1-yl)methyl)phenyl)-1,3,4-oxadiazole] | > 50 | – | – | – | –
